Assay results reported in US20240270762A1, “PENICILLIN-BINDING PROTEIN INHIBITORS” (priority 2021, published 2024).
In brackets after ≈: the same amount, converted by molar mass.

Columns and labels:
[1] = biological target: T1, PBP3 from Escherichia coli (K-12) (Escherichia coli, UniProt P0AD68); assay: Bocillin-FL fluorescence polarization competition binding, E. coli PBP3
T1 construct: made in house
How it was run: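 Purified PBP was preincubated with inhibitor (E. coli PBP3 1.5 μM, 30 min; P. aeruginosa PBP3 0.75 μM, A. baumannii PBP3 0.2 μM and PBP1a 1 μM, 15 min), then Bocillin-FL (0.1 μM; 0.05 μM for PBP1a) added and FP read up to 60 min. EC50 = 50% loss of bound probe.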

[2] = test system: N. gonorrhoeae MS11; assay: Liquid broth MIC in Fastidious broth; conditions: Neisseria gonorrhoeae, MS11, read-out: Minimum Inhibitory Concentration (MIC), N. gonorrhoeae MS11
[3] = test system: N. gonorrhoeae WHO L; assay: Liquid broth MIC in Fastidious broth; conditions: Neisseria gonorrhoeae, read-out: Minimum Inhibitory Concentration (MIC), N. gonorrhoeae WHO L
Procedure: Liquid broth-based assays were used for antibacterial testing of PBP inhibitors in Neisseria gonorrhoeae. Briefly, cryo-preserved bacterial cultures of clinical strains were streaked for isolation on Chocolate Agar (72 g/L (2×) GC Agar Base (BD #228950) and 2% (2×) Hemoglobin was autoclaved at 121° C. for 20 minutes to sterilize. Once cooled to ˜50° C. the 2×GC Agar Base and 2× Hemoglobin solutions are combined and 1% IsoVitaleX Enrichment (BD #211876) was added to the solution). Strains were incubated at 36° C. and 5% CO2 to allow growth of colonies, 24 hours before inoculum preparation. 2-fold serial dilutions of test compounds were conducted in a 96 well plate with a final volume of 75 μL per well at 2-fold the final desired concentration in Fastidious broth (Remel #R07664). For preparation of assay inoculum, a direct suspension was prepared by aseptically swabbing 10-15 colonies from agar plates into culture tubes containing 2 mL of fresh sterile saline. After the dilution plates were set up, direct suspensions were then diluted in a cuvette containing sterile saline and the optical density was measured at 600 nm. Inocula were diluted such that 75 μL of this culture in Fastidious broth results in a starting bacterial concentration of 5×10^5 CFU/mL when added to the dilution plates. The plates were incubated for ˜24 hours at 36° C. and 5% CO2.

[4] = biological target: T2, PBP2 from Neisseria gonorrhoeae (FA19) (Neisseria gonorrhoeae, UniProt P08149); assay: Bocillin-FL fluorescence polarization competition binding, N. gonorrhoeae PBP2; conditions: fluorescence polarization competition binding assay using Bocillin-FL, read-out: N. gonorrhoeae PBP2 Potency
T2 construct: made in house
T2 sequence (P08149 whole entry): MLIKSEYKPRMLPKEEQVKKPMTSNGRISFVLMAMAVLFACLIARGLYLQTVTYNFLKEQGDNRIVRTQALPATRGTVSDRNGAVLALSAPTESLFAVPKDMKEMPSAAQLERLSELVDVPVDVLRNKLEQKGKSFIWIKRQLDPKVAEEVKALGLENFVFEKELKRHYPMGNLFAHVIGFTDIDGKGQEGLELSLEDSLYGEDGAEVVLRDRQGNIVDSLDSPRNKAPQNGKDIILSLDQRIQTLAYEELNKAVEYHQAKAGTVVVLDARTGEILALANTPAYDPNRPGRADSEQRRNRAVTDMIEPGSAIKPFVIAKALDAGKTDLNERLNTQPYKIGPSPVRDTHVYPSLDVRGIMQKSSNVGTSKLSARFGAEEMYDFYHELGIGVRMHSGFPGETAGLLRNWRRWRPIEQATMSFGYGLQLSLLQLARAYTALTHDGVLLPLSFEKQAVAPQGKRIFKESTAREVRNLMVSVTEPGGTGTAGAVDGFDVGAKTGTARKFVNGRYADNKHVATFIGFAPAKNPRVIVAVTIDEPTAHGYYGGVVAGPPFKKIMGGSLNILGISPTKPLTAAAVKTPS
Text: To determine the ability of boronic acid-based test PBP inhibitors to bind Penicillin Binding Proteins (PBPs), Bocillin-FL (fluorescently-labeled penicillin V; ThermoFisher Scientific) was used in a fluorescence polarization (FP) competition binding assay to assess inhibitor binding to PBP3 from Escherichia coli (K-12), PBP3 from Pseudomonas aeruginosa (PAO1), PBP1a and PBP3 from Acinetobacter baumannii (ATCC 19606), and PBP2 from Neisseria gonorrhoeae (FA19). PBPs were cloned and purified as described previously (E. coli PBP3, King, D. T, et al., ACS Infectious Diseases 2015, 1, 175-184; P. aeruginosa PBP3, Han et. al., PNAS 2010, 107 (51), 22002-22007; A. baumannii PBPs, Penwell et. al., Antimicrob. Agents Chemother. 2015, 59 (3), 1680-1689; N. gonorrhoeae PBP2, Singh et. al., J. Biol. Chem. 2019, 294 (38), 14020-14032). To establish assay conditions for competition binding, enzyme titration/saturation binding experiments were initially performed. Bocillin-FL was prepared at 0.2 μM in a buffer comprised of 50 mM Hepes (pH 8.0), 300 mM NaCl and 10% (v/v) glycerol for reactions with E. coli, P. aeruginosa and N. gonorrhoeae PBPs, and 25 mM Tris (pH 8.0), 200 mM NaCl, 10% (v/v) glycerol and 0.005% (v/v) Tween 20 for reactions with A. baumannii PBPs. Saturation binding was performed by mixing 40 μl of PBP solutions ranging in concentrations from 0-24 μM with 40 μl of the 0.2 μM Bocillin-FL solution, in individual wells of a black 384-well microplate. FP was measured immediately upon mixing (Excitation, 490 nm; Emission, 520 nm; g-factor, 0.96), using a Cytation3 (BioTek) microplate reader and measured continuously for up to 120 minutes. […] The competition binding assay (80 μl final volume) was validated using beta-lactams and PBPs at final concentrations of: 1.5 μM for E. coli PBP3; 0.75 μM for P. aeruginosa PBP3; 1 μM for A. baumannii PBP1a; 0.2 μM for A. baumannii PBP3; and 0.25 μM for N. gonorrhoeae PBP2. Bocillin-FL was at 0.1 μM (0.05 μM with A. baumannii PBP1a) and beta-lactam concentrations ranged from 0-1,000 μM. E. coli PBP3 was incubated with increasing concentrations of ampicillin in a black 384-well microplate (Corning) for 30 minutes. P. aeruginosa PBP3 was incubated for 15 minutes with aztreonam, whereas A. baumannii PBP1a and PBP3 were incubated for 15 minutes with meropenem, and then Bocillin-FL was added followed immediately by the FP measurement for up to 60 minutes. […] The beta-lactam potency was reported as the concentration of beta-lactam required to reduce the amount of PBP bound-Bocillin-FL by 50% (EC50). […] Binding assays for boronic acid PBP inhibitors were performed in an identical fashion for the respective PBPs.

T1 sequence (P0AD68 1-577): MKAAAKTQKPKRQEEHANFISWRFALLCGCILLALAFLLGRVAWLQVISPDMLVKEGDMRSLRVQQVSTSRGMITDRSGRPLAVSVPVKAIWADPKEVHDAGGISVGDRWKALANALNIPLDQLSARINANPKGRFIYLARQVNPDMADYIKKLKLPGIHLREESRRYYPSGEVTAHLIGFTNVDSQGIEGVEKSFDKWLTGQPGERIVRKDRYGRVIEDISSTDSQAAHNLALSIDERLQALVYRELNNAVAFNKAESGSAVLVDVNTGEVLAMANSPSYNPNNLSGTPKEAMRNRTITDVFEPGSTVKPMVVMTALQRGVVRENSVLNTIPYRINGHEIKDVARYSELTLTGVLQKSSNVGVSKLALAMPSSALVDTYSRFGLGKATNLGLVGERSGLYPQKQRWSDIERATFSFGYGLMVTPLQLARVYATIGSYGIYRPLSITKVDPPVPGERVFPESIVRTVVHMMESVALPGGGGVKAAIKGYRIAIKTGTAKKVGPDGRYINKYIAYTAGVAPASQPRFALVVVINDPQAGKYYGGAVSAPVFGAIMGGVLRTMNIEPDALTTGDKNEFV

Compound | EC50 [1] | MIC [2] | MIC [3] | EC50 [4]
O=C(O)c1c(F)ccc2c1OB(O)[C@@H](NC(=O)C(NC(=O)N1CCN(Cc3ccc(O)c(O)c3Cl)C(=O)C1=O)c1ccc(P(=O)(O)O)cc1)C2 (stereo partly drawn) [Example 8, (3R)-3-(2-(4-(2-chloro-3,4-dihydroxybenzyl)-2,3-dioxopiperazine-1-carboxamido)-2-(4-phosphonophenyl)acetamido)-7-fluoro-2-hydroxy-3,4-dihydro-2H-benzo[e][1,2]oxaborinine-8-carboxylic acid] | < 10 µM | < 1 µg/mL | 4 to 8 µg/mL (≈ 5.44 to 10.9 µM) | < 10 µM
CS(=O)(=O)N1CCN(C(=O)NC(C(=O)N[C@H]2Cc3cccc(C(=O)O)c3OB2O)c2ccc(P(=O)(O)O)c(Cl)c2)C1=O (stereo partly drawn) [Example 11, (3R)-3-(2-(3-chloro-4-phosphonophenyl)-2-(3-(methylsulfonyl)-2-oxoimidazolidine-1-carboxamido)acetamido)-2-hydroxy-3,4-dihydro-2H-benzo[e][1,2]oxaborinine-8-carboxylic acid] | < 10 µM | < 1 µg/mL | 1 to 2 µg/mL (≈ 1.55 to 3.1 µM) | < 10 µM
CS(=O)(=O)N1CCN(C(=O)NC(C(=O)N[C@H]2Cc3cccc(C(=O)O)c3OB2O)c2ccc(P(=O)(O)O)c(F)c2)C1=O (stereo partly drawn) [Example 12, (3R)-3-(2-(3-fluoro-4-phosphonophenyl)-2-(3-(methylsulfonyl)-2-oxoimidazolidine-1-carboxamido)acetamido)-2-hydroxy-3,4-dihydro-2H-benzo[e][1,2]oxaborinine-8-carboxylic acid] | < 10 µM | < 1 µg/mL | < 1 µg/mL | < 10 µM
NC(C(=O)N[C@H]1Cc2ccc(F)c(C(=O)O)c2OB1O)c1ccc(P(=O)(O)O)cc1 (stereo partly drawn) [Example 14, (3R)-3-(2-amino-2-(4-phosphonophenyl)acetamido)-7-fluoro-2-hydroxy-3,4-dihydro-2H-benzo[e][1,2]oxaborinine-8-carboxylic acid] | > 250 µM | > 64 µg/mL | > 64 µg/mL | 50 to 250 µM
CS(=O)(=O)N1CCN(C(=O)N[C@@H](C(=O)N[C@H]2Cc3ccc(F)c(C(=O)O)c3OB2O)c2ccc(P(=O)(O)O)c(F)c2F)C1=O [Example 16, (R)-3-((R)-2-(2,3-difluoro-4-phosphonophenyl)-2-(3-(methylsulfonyl)-2-oxoimidazolidine-1-carboxamido)acetamido)-7-fluoro-2-hydroxy-3,4-dihydro-2H-benzo[e][1,2]oxaborinine-8-carboxylic acid] | < 10 µM | < 1 µg/mL | < 1 µg/mL | < 10 µM
CS(=O)(=O)N1CCN(C(=O)NC(C(=O)N[C@H]2Cc3cccc(C(=O)O)c3OB2O)c2ccc(P(=O)(O)O)c(O)c2)C1=O (stereo partly drawn) [Example 17, (3R)-2-hydroxy-3-(2-(3-hydroxy-4-phosphonophenyl)-2-(3-(methylsulfonyl)-2-oxoimidazolidine-1-carboxamido)acetamido)-3,4-dihydro-2H-benzo[e][1,2]oxaborinine-8-carboxylic acid] | < 10 µM | < 1 µg/mL | < 1 µg/mL | < 10 µM
CCN1CCN(C(=O)NC(C(=O)N[C@H]2Cc3cccc(C(=O)O)c3OB2O)c2ccc(CP(=O)(O)O)cc2)C(=O)C1=O (stereo partly drawn) [Example 20, (3R)-3-(2-(4-ethyl-2,3-dioxopiperazine-1-carboxamido)-2-(4-(phosphonomethyl)phenyl)acetamido)-2-hydroxy-3,4-dihydro-2H-benzo[e][1,2]oxaborinine-8-carboxylic acid] | < 10 µM | < 1 µg/mL | 1 to 2 µg/mL (≈ 1.66 to 3.32 µM) | < 10 µM
CCN1CCN(C(=O)NC(C(=O)N[C@H]2Cc3cccc(C(=O)O)c3OB2O)c2ccc(P(=O)(O)O)c(O)c2)C(=O)C1=O (stereo partly drawn) [Example 21, (3R)-3-(2-(4-ethyl-2,3-dioxopiperazine-1-carboxamido)-2-(3-hydroxy-4-phosphonophenyl)acetamido)-2-hydroxy-3,4-dihydro-2H-benzo[e][1,2]oxaborinine-8-carboxylic acid] | < 10 µM | < 1 µg/mL | < 1 µg/mL | < 10 µM
CCN1CCN(C(=O)NC(C(=O)N[C@H]2Cc3cccc(C(=O)O)c3OB2O)c2cccc(CP(=O)(O)O)c2)C(=O)C1=O (stereo partly drawn) [Example 22, (3R)-3-(2-(4-ethyl-2,3-dioxopiperazine-1-carboxamido)-2-(3-(phosphonomethyl)phenyl)acetamido)-2-hydroxy-3,4-dihydro-2H-benzo[e][1,2]oxaborinine-8-carboxylic acid] | < 10 µM | 1 to 2 µg/mL (≈ 1.66 to 3.32 µM) | 16 to 32 µg/mL (≈ 26.6 to 53.1 µM) | < 10 µM
O=C(O)c1c(F)ccc2c1OB(O)[C@@H](NC(=O)C(NC(=O)N1CCN(Cc3ccc(O)c(O)c3Cl)C(=O)C1=O)c1ccc(P(=O)(O)O)c(F)c1)C2 (stereo partly drawn) [Example 23, (3R)-3-(2-(4-(2-chloro-3,4-dihydroxybenzyl)-2,3-dioxopiperazine-1-carboxamido)-2-(3-fluoro-4-phosphonophenyl)acetamido)-7-fluoro-2-hydroxy-3,4-dihydro-2H-benzo[e][1,2]oxaborinine-8-carboxylic acid] | < 10 µM | < 1 µg/mL | 4 to 8 µg/mL (≈ 5.31 to 10.6 µM) | < 10 µM
O=C(O)c1cccc2c1OB(O)[C@@H](NC(=O)C(NC(=O)N1CCN(Cc3ccc(O)c(O)c3Cl)C(=O)C1=O)c1ccc(P(=O)(O)O)cc1)C2 (stereo partly drawn) [Example 24, (3R)-3-(2-(4-(2-chloro-3,4-dihydroxybenzyl)-2,3-dioxopiperazine-1-carboxamido)-2-(4-phosphonophenyl)acetamido)-2-hydroxy-3,4-dihydro-2H-benzo[e][1,2]oxaborinine-8-carboxylic acid] | < 10 µM | < 1 µg/mL | 4 to 8 µg/mL (≈ 5.58 to 11.2 µM) | < 10 µM
CCN1CCN(C(=O)NC(C(=O)N[C@H]2Cc3cccc(C(=O)O)c3OB2O)c2c(F)cc(P(=O)(O)O)cc2F)C(=O)C1=O (stereo partly drawn) [Example 25, (3R)-3-(2-(2,6-difluoro-4-phosphonophenyl)-2-(4-ethyl-2,3-dioxopiperazine-1-carboxamido)acetamido)-2-hydroxy-3,4-dihydro-2H-benzo[e][1,2]oxaborinine-8-carboxylic acid] | < 10 µM | < 1 µg/mL | 1 to 2 µg/mL (≈ 1.6 to 3.2 µM) | < 10 µM
CC(=O)NC(C(=O)N[C@H]1Cc2cccc(C(=O)O)c2OB1O)c1ccc(P(=O)(O)O)cc1 (stereo partly drawn) [Example 26, (3R)-3-(2-acetamido-2-(4-phosphonophenyl)acetamido)-2-hydroxy-3,4-dihydro-2H-benzo[e][1,2]oxaborinine-8-carboxylic acid] | 50 to 250 µM | 16 to 32 µg/mL (≈ 34.6 to 69.2 µM) | 16 to 32 µg/mL (≈ 34.6 to 69.2 µM) | 10 to 50 µM
CCC(=O)NC(C(=O)N[C@H]1Cc2cccc(C(=O)O)c2OB1O)c1ccc(P(=O)(O)O)cc1 (stereo partly drawn) [Example 27, (3R)-2-hydroxy-3-(2-(4-phosphonophenyl)-2-propionamidoacetamido)-3,4-dihydro-2H-benzo[e][1,2]oxaborinine-8-carboxylic acid] | 50 to 250 µM | 16 to 32 µg/mL (≈ 33.6 to 67.2 µM) | 16 to 32 µg/mL (≈ 33.6 to 67.2 µM) | 10 to 50 µM
CC(C)C(=O)NC(C(=O)N[C@H]1Cc2cccc(C(=O)O)c2OB1O)c1ccc(P(=O)(O)O)cc1 (stereo partly drawn) [Example 28, (3R)-2-hydroxy-3-(2-isobutyramido-2-(4-phosphonophenyl)acetamido)-3,4-dihydro-2H-benzo[e][1,2]oxaborinine-8-carboxylic acid] | 50 to 250 µM | 16 to 32 µg/mL (≈ 32.6 to 65.3 µM) | 16 to 32 µg/mL (≈ 32.6 to 65.3 µM) | < 10 µM
